Assay results from ChEMBL document CHEMBL1146913, “Symmetrical and unsymmetrical analogues of isoxyl; active agents against Mycobacterium tuberculosis” (2006).
Converted amounts (≈) assume the structure as drawn.

How the values were obtained:
[1] = tested on: Vero; assay: Selectivity index, IC50 against Vero cells/MIC against Mycobacterium; type: functional
[2] = tested on: Mycobacterium tuberculosis; assay: Antibacterial activity against Mycobacterium tuberculosis H37Rv; type: functional

Row | Structure (SMILES) | Selectivity index [1] | MIC99 [2] [µg/mL]
1 | CCCCOc1ccc(NC(=S)Nc2ccc(SCCC)cc2)cc1 | 45.5 | 0.2 (≈ 0.534 µM)
2 | CCCCOc1ccc(NC(=S)Nc2ccc(CCCC)cc2)cc1 | 87 | < 0.1
3 | CCCCOc1ccc(NC(=S)Nc2ccc(SCC(C)C)cc2)cc1 | – | > 6.25
4 | CCCCOc1ccc(NC(=S)Nc2ccc(Cc3ccccc3)cc2)cc1 | 22.1 | 0.39 (≈ 0.999 µM)
5 | CC(C)CSc1ccc(NC(=S)Nc2ccc(SCC(C)C)cc2)cc1 | 12.4 | 0.78 (≈ 1.93 µM)
6 | CCCCOc1ccc(NC(=S)Nc2ccc(OCCC(C)C)cc2)cc1 | 89 | < 0.1
7 | CCCOc1ccc(NC(=S)Nc2ccc(OCCC)cc2)cc1 | 44 | 0.2 (≈ 0.581 µM)
8 | CCCSc1ccc(NC(=S)Nc2ccc(Cc3ccccc3)cc2)cc1 | 5.28 | 1.56 (≈ 3.97 µM)
9 | CC(C)CCOc1ccc(NC(=S)Nc2ccc(Cc3ccccc3)cc2)cc1 | 48 | 0.2 (≈ 0.494 µM)
10 | CCCCOc1ccc(NC(=S)Nc2ccc(OCC(C)C)cc2)cc1 | 79.9 | 0.1 (≈ 0.268 µM)
11 | CC(C)CCOc1ccc(NC(=S)Nc2ccc(OCC(C)C)cc2)cc1 | 72 | 0.39 (≈ 1.01 µM)
12 | CCCCc1ccc(NC(=S)Nc2ccc(OCCC)cc2)cc1 | 100 | < 0.1
13 | CC(C)CCOc1ccc(NC(=S)Nc2ccc(OCCC(C)C)cc2)cc1 [TIOCARLIDE] | 82 | 2 (≈ 4.99 µM)
